Test results as given in publication PMC3743849, “A Yeast-Based Chemical Screen Identifies a PDE Inhibitor That Elevates Steroidogenesis in Mouse Leydig Cells via PDE8 and PDE4 Inhibition” (PLoS ONE, 2013).

Legend:
human PDE7A = biological target: T1, human PDE7A (Homo sapiens, UniProt Q13946); assay: In vitro PDE assay (Ba(OH)2 precipitation), PDE7A; type: biochemical; settings: for IC50: 10 nM cAMP substrate, mean ± SD of three independent experiments
T1 construct: purchased BIOMOL International
T1 sequence (Q13946 whole entry): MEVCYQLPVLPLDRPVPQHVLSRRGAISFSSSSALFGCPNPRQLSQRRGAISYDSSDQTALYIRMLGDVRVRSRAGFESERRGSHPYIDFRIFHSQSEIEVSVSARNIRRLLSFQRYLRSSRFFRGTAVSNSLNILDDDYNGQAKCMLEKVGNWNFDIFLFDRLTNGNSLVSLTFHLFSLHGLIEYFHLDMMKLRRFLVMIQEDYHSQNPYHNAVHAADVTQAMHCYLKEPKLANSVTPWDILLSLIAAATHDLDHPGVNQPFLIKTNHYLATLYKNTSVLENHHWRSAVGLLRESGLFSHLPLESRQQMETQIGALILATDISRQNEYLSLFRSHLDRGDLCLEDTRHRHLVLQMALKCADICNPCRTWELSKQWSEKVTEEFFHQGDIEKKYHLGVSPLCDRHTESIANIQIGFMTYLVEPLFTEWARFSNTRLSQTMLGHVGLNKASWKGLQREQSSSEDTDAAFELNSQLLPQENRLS

recombinant human PDE5A1 = biological target: T2, recombinant human PDE5A1 (Homo sapiens, UniProt O76074); assay: In vitro PDE assay (Ba(OH)2 precipitation), PDE5A; type: biochemical; settings: 520 nM cGMP substrate; mean ± SD of three independent experiments
T2 construct: purchased BPS Bioscience Inc
Description: (§1) In vitro PDE assays were performed as previously described, using the Ba(OH)2 precipitation assay, with recombinant human PDE1C, PDE3B, PDE5A1, PDE8A, PDE9A2, PDE10A1, PDE11A4 (BPS Bioscience Inc.), rat PDE2A (BPS Bioscience Inc.), human PDE7A (BIOMOL International), and human PDE4A10 enzymes (gift from Dr. Hengming Ke). Substrate concentrations were 120 nM cGMP (PDE1C), 1 µM cGMP (PDE2A), 30 nM cGMP (PDE3B), 50 nM cAMP (PDE4A), 520 nM cGMP (PDE5A), 10 nM cAMP (PDE7A), 10 nM cAMP (PDE8A), 70 nM cGMP (PDE9A), 40 nM cAMP (PDE10A), and 120 nM cGMP (PDE11A). Reactions were performed in 50 mM Tris·HCl (pH 8.5), 10 mM MgCl2 (for all enzymes except PDE8) or 4 mM MnCl2 (for PDE8A), and 5 mM dithiothreitol, and proceeded for 30 min for PDE8A, 6 min for PDE10A and 15 min for other PDEs, so that reactions were linear with time. Reactions were stopped with 200 µL 0.2 M ZnSO4, after which 5′-AMP was precipitated with 200 µL 0.25 N Ba(OH)2 by centrifugation for 15 min at 14000 rpm. The remaining radioactivity in the supernatant was measured in 4 mL of scintillation fluid. The amount of hydrolysis was generally limited to 30 percent conversion and IC50 values were calculated as the means of three independent experiments. Substrate concentrations were ≤0.1*Km for each enzyme, thus IC50 values approximate the Ki values.

rat PDE2A = biological target: T3, rat PDE2A (Rattus norvegicus, UniProt Q01062); assay: In vitro PDE assay (Ba(OH)2 precipitation), PDE2A; type: biochemical; settings: 1 µM cGMP substrate; mean ± SD of three independent experiments
T3 construct: purchased BPS Bioscience Inc
T3 sequence (Q01062 1-928): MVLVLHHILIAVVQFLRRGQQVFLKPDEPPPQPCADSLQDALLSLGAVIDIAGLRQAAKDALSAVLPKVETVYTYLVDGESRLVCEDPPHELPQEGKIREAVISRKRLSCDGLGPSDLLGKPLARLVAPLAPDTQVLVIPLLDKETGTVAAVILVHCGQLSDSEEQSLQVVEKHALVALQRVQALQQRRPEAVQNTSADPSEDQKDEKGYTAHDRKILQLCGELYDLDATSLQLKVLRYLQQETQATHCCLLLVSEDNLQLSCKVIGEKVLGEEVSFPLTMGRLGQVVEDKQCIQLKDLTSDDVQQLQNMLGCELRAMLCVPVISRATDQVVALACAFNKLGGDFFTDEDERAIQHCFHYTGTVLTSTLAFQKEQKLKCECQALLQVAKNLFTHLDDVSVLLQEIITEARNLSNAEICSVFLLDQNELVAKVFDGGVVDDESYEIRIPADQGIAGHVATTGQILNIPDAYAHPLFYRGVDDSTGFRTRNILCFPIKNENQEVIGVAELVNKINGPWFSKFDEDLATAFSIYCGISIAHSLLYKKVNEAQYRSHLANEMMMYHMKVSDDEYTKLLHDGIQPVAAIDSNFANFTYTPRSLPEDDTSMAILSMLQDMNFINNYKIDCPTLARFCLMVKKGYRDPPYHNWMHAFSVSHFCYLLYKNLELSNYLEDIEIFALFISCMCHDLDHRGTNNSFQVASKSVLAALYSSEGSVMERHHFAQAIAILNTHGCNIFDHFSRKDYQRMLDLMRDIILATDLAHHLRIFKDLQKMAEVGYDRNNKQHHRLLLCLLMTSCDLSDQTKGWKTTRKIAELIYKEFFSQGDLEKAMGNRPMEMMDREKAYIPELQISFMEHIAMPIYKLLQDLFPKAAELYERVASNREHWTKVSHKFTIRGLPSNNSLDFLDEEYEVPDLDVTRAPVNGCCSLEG
Description: as §1

recombinant human PDE3B = biological target: T4, recombinant human PDE3B (Homo sapiens, UniProt Q13370); assay: In vitro PDE assay (Ba(OH)2 precipitation), PDE3B; type: biochemical; settings: 30 nM cGMP substrate; three independent experiments
T4 construct: purchased BPS Bioscience Inc
Description: as §1

recombinant human PDE9A2 = biological target: T5, recombinant human PDE9A2 (Homo sapiens, UniProt O76083); assay: In vitro PDE assay (Ba(OH)2 precipitation), PDE9A; type: biochemical; settings: 70 nM cGMP substrate; three independent experiments
T5 construct: purchased BPS Bioscience Inc
T5 sequence (O76083 1-533 isoform O76083-2): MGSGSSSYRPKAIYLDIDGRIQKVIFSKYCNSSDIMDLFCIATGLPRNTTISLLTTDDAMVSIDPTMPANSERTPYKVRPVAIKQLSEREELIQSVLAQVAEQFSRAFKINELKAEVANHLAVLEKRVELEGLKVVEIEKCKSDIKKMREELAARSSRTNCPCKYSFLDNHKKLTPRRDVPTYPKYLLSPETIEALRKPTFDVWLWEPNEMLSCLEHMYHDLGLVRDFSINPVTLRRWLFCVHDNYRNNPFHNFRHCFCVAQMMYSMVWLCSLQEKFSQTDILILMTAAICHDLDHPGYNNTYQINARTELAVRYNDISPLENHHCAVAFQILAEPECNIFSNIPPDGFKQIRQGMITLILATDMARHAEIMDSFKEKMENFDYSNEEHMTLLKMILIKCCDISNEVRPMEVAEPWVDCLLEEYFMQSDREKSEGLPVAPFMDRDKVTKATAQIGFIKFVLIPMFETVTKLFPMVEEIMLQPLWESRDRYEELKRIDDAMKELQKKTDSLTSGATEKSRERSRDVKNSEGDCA
Description: as §1

MA-10 Leydig tumor cells = assay: Progesterone release from MA-10 Leydig tumor cells; type: cell-based, mouse; settings: 20 µM compound; 2 h
Description: MA-10 Leydig tumor cells were maintained in RPMI medium supplemented with 10% horse serum and seeded in 24 well plates to achieve 60–80% confluency after 2–3 days. Cells were washed with serum free medium twice and incubated in a 5% CO2 incubator at 37°C for 2 h. Following incubation, cells were treated with BC8-15, BC8-15A, or BC8-15C by replacing the media with 300 µL RPMI medium containing test compounds or vehicle. Media were collected after incubation for 2 h at 37°C. Progesterone levels in the media were measured using a progesterone ELISA kit (Neogen, Lexington, KY). Protein levels were determined by lysing cells in lysis buffer (50 mM Tris HCl (pH 7.5), 150 mM NaCl, 1% Triton X-100, 2 mM PMSF (supplemented with a Complete Protease Inhibitor Tablet (Roche, Nutley, NJ)) and measuring the protein concentration using a BCA protein assay kit (Pierce, Rockford, IL).

recombinant human PDE1C = biological target: T6, recombinant human PDE1C (Homo sapiens, UniProt Q14123); assay: In vitro PDE assay (Ba(OH)2 precipitation), PDE1C; type: biochemical; settings: 120 nM cGMP substrate; mean ± SD of three independent experiments
T6 construct: purchased BPS Bioscience Inc
T6 sequence (Q14123 whole entry): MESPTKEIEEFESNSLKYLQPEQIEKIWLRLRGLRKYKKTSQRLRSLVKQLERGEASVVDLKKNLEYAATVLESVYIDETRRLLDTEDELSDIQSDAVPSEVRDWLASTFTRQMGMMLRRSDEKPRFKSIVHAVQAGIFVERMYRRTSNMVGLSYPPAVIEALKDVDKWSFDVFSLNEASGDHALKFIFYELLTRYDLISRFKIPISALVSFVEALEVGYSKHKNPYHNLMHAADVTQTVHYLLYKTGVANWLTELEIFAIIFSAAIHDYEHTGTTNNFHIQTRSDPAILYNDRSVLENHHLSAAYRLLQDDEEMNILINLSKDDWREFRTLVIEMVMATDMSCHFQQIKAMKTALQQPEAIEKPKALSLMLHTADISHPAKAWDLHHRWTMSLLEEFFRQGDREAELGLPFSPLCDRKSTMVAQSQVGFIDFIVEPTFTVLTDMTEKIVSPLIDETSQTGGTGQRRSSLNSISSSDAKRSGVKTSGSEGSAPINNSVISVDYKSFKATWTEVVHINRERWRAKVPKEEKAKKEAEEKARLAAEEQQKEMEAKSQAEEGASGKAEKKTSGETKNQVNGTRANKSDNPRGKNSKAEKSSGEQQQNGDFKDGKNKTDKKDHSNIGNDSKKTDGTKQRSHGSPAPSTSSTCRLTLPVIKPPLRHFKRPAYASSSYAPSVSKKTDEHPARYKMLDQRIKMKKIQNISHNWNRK
Description: as §1

recombinant human PDE8A = biological target: T7, recombinant human PDE8A (Homo sapiens, UniProt O60658); assay: In vitro PDE assay (Ba(OH)2 precipitation), PDE8A; type: biochemical; settings: for IC50: 10 nM cAMP substrate
T7 construct: purchased BPS Bioscience Inc
T7 sequence (O60658 whole entry): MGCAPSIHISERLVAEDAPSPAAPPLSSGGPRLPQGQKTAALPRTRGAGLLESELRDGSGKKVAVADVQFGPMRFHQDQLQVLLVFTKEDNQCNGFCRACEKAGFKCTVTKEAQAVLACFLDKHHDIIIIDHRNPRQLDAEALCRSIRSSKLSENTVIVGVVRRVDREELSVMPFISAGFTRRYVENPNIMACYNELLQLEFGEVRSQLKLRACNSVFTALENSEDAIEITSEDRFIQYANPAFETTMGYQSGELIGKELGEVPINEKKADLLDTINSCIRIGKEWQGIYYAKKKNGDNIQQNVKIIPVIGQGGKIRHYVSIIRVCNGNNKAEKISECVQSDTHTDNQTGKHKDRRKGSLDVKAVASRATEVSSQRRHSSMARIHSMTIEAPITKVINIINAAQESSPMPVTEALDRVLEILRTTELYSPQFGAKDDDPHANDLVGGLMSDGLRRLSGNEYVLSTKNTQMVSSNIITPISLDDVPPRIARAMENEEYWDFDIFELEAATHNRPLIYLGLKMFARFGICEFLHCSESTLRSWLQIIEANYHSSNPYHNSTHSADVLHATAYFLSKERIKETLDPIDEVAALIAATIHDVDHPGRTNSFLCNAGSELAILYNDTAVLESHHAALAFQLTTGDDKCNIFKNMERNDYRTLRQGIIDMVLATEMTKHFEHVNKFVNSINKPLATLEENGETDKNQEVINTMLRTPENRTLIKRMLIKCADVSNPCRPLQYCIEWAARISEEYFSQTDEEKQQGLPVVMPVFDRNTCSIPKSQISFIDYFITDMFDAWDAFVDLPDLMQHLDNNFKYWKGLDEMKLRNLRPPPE
Description: as §1

[1] = biological target: T8, recombinant human PDE11A4 (Homo sapiens, UniProt Q9HCR9); assay: In vitro PDE assay (Ba(OH)2 precipitation), PDE11A; type: biochemical; settings: 120 nM cGMP substrate; mean ± SD of three independent experiments
T8 construct: purchased BPS Bioscience Inc
T8 sequence (Q9HCR9 whole entry): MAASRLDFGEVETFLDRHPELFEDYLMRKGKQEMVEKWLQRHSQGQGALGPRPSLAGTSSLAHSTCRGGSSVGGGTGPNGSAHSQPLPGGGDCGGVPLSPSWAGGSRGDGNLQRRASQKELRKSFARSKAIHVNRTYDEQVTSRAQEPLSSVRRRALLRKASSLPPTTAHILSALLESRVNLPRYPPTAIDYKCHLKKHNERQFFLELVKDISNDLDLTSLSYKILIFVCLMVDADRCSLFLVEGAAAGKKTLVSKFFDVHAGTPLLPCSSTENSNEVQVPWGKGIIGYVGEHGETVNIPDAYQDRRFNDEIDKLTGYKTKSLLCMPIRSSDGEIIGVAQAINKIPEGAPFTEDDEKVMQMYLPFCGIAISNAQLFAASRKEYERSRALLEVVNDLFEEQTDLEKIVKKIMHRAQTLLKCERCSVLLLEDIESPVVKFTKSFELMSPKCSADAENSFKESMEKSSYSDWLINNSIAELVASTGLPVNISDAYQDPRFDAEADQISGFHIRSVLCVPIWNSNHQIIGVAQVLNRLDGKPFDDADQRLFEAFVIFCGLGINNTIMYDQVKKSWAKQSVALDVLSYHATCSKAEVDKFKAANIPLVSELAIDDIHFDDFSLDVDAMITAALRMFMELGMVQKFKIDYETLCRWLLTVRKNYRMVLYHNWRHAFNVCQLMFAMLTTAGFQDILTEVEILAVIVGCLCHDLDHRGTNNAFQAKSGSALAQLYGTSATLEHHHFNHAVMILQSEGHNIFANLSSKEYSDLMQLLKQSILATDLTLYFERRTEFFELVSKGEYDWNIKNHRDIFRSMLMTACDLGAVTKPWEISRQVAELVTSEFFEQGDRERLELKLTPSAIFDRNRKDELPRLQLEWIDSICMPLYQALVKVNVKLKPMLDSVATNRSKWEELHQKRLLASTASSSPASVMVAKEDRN
Description: as §1

[2] = biological target: T9, recombinant human PDE10A1 (Homo sapiens, UniProt Q9Y233); assay: In vitro PDE assay (Ba(OH)2 precipitation), PDE10A; type: biochemical; settings: 40 nM cAMP substrate; mean ± SD of three independent experiments
T9 construct: purchased BPS Bioscience Inc
T9 sequence (Q9Y233 1-779 isoform Q9Y233-1): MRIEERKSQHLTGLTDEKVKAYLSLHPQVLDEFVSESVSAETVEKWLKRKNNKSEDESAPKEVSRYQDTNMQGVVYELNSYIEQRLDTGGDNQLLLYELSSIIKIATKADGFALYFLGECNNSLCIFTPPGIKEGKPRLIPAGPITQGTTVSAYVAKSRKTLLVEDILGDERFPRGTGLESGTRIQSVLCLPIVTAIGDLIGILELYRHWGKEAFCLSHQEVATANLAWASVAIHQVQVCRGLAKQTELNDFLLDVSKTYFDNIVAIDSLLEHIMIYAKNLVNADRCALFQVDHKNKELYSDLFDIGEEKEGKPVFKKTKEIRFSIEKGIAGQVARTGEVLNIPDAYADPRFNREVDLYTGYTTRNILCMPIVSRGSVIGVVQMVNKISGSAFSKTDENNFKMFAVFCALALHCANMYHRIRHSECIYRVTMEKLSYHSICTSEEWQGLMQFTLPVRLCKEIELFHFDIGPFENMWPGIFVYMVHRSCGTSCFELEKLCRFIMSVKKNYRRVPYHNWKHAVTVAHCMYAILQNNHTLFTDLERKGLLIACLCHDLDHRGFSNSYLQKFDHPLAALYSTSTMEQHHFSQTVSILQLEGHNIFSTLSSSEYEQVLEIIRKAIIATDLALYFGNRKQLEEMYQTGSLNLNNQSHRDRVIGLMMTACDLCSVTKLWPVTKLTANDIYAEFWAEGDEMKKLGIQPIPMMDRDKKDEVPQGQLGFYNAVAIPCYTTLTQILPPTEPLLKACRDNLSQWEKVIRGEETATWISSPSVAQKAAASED
Description: as §1

murine PDE8A1 = system: T10, murine PDE8A1; assay: Yeast-based 5FOA growth HTS with PDE8A-expressing S. pombe strain CHP1204; type: cell-based; settings: Known Bioactives Collection screen
T10 construct: expressed in transfected cells; host or cells: Schizosaccharomyces pombe strain CHP1204 (PDE8A1 integrated at the cgs2 locus)
Description: Cyclic nucleotide-dependent growth in 5FOA medium was monitored in 50 µL cultures in 384-well microtiter plates (untreated, flat clear bottom). Cells were inoculated at an initial cell density of 0.5–2×10^5 cells/mL. Previously described optimized pre-growth conditions for each strain were used to repress the fbp1-ura4^+ reporter prior to inoculation into 5FOA medium, as cells that are already expressing the Ura4 enzyme would be 5FOA-sensitive even upon exposure to a PDE inhibitor [18]. Following a 48-h incubation at 30°C, plates were vortexed and optical densities (600 nm) were measured. The experiments with the PDE8A-expressing strain (CHP1204) were performed with 0.5 mM cAMP in the pre-growth medium and 40 µM cAMP in the 5FOA medium. […]
The suitability and quality of the assay conditions for high throughput screening was evaluated by a Z factor test as previously described, [23], using DMSO (0.2%) as a negative control, and either 5 mM cAMP, 10 µM BC69, or 20 µM BC69 as positive controls. […] After 48 h growth at 30°C, the optical density (OD600) of each well was measured using a plate reader. Composite Z scores were calculated for each compound by scaling the vector [Zscore_A, Zscore_B] by the cosine correlation with the diagonal (i.e. identical Z-scores in both replicates).

PDE8 enzymes = system: PDE8 enzymes; parameters: method as in PMID 9671792, PMID 9784418; settings: ref [6], [11]; cited from earlier work
human PDE4A10 = biological target: T11, human PDE4A10 (Homo sapiens, UniProt P27815); assay: In vitro PDE assay (Ba(OH)2 precipitation), PDE4A; type: biochemical; settings: 50 nM cAMP substrate
T11 construct: gift from Dr. Hengming Ke

[3] = system: primary Leydig cells from wild type mice; assay: Testosterone production from primary Leydig cells, wild type mice; type: cell-based, mouse; settings: 3 h, rolipram 20 µM, BC8-15 10 µM and 40 µM
Description: (§2) Leydig cells were isolated from testes of wild type and PDE8A^−/−/B^−/− knock-out adult mice as previously described. Digested tissue from decapsulated mouse testis was enriched for interstitial cells by filtration as previously described. Collected cells were resuspended in DMEM/F-12 medium supplemented with 1 mg/mL BSA and 150 µL aliquots were dispensed into 48-well plates. After permitting cells to recover at 37°C for 3 h, 30 µL of media with test compounds or vehicle was added to replicate wells. Media were collected after incubation for 3 h and stored at −20°C. Testosterone released into the media was measured by a testosterone ELISA kit (Neogen, Lexington, KY).

[4] = system: primary Leydig cells from PDE8A−/−/B−/− knock-out mice; assay: Testosterone production from primary Leydig cells, PDE8A-/-/B-/- knock-out mice; type: cell-based, mouse; settings: 3 h, rolipram 20 µM, BC8-15 10 µM and 40 µM
Description: as §2

[5] = mean ± SD of three independent experiments

SMILES | IC50 (human PDE7A) [µM] | IC50 (recombinant human PDE5A1) [µM] | IC50 (rat PDE2A) [µM] | IC50 (recombinant human PDE3B) [µM] | IC50 (recombinant human PDE9A2) [µM] | increase in progesterone release compared to untreated cells (MA-10 Leydig tumor cells) | IC50 (recombinant human PDE1C) [µM] | IC50 [1] [µM] | IC50 [2] [µM] | also measured
CCc1nnc2c3ccccc3nc(Nc3cccc(C)c3)n12 [BC8-15C] | 14.2 ± 6.4 | > 20 | > 20 | > 20 | > 20 | little or no effect | > 20 | 0.08 ± 0.05 | 1.5 ± 1.2 | IC50 (recombinant human PDE8A; [5]): 59.3 ± 14.2 µM
OCCN(CCO)c1nc(N2CCCCC2)c2nc(N(CCO)CCO)nc(N3CCCCC3)c2n1 [dipyridamole] | – | – | – | – | – | – | – | – | – | activity in PDE8A yeast growth screen (murine PDE8A1): no activity; sensitivity of PDE8 enzymes to inhibitor (PDE8 enzymes): only weakly inhibited
CC(C)Cn1c(=O)n(C)c(=O)c2[nH]cnc21 [3-isobutyl-1-methylxanthine (IBMX), 3-isobutyl-1-methylxanthine] | – | – | – | – | – | – | – | – | – | sensitivity of PDE8 enzymes to inhibitor (PDE8 enzymes): insensitive
Cc1nnc2c3ccccc3nc(Nc3cccc(C(=O)O)c3)n12 [BC8-15A] | 8.88 ± 3.9 | > 20 | 5.2 ± 2 | > 20 | > 20 | five-fold | > 20 | 1 | 2.3 ± 0.7 | IC50 (human PDE4A10; [5]): 1.59 ± 0.1 µM; IC50 (recombinant human PDE8A; [5]): 1.59 ± 0.3 µM
COc1ccc(C2CNC(=O)C2)cc1OC1CCCC1 (stereo not shown) [rolipram, reference compound] | – | – | – | – | – | little or no effect | – | – | – | testosterone release [3]: no response; increase in testosterone production [4]: two-fold increase
C[C@]12CC[C@H](O)C[C@@H]1CC[C@@H]1[C@@H]2CC[C@]2(C)C(=O)CC[C@@H]12 [epiandrosterone, reference compound] | – | – | – | – | – | – | – | – | – | composite Z score, 5FOA-resistant growth of PDE8A1-expressing strain (murine PDE8A1; 40 µM cAMP in 5FOA medium, 48 h): 12.9; inhibition at 32 µM (recombinant human PDE8A; 32 µM compound, data not shown): 17%
CCc1nnc2c3ccccc3nc(Nc3cccc(C(=O)O)c3)n12 [BC8-15] | 6.46 | 16.7 ± 2.3 | 15.7 ± 2.7 | > 20 | > 20 | > 10 fold | 8.4 ± 3 | 1.2 ± 0.7 | 1.6 ± 0.2 | fold less activity against PDE7A (vs PDE8A/PDE4A) (human PDE7A; ratio of IC50 values): 23 fold; IC50 (human PDE4A10): 0.22 µM; testosterone release [3]: dose-dependent elevation; IC50 (recombinant human PDE8A): 0.28 µM; increase in testosterone production [4]: two-fold increase
